The values below come from patent US5939421A, “Quinazoline analogs and related compounds and methods for treating inflammatory conditions” (Signal Pharmaceuticals, Inc., priority 1997, dated 1999).

Molecules are shown by their SMILES.

For assay [1], the system named is NFκB. As to the kind of experiment: NFκB assay: luciferase reporter in stable Jurkat T-cells, PMA/PHA stimulated. Particulars: Homo sapiens, PMA 50 ng/mL + PHA 1 μg/mL, 5 h, read-out: NFkB IC50. Type of assay: cell-based. The procedure: (§1) Stable human Jurkat T-cells containing an NFκB binding site (from the MHC promoter) fused to a minimal SV-40 promoter driving luciferase expression were used in this experiment. Cells were split to 3×10^5 cells/mL every 2-3 days (cell concentration should not exceed 1×10^6 cells/mL to keep the cells proliferating in log phase). These cells were counted, resuspended in fresh medium containing 10% Serum-Plus at a density of 1×10^6 cells/mL and plated in 96 well round bottom plates (200 μL per well) 18 hours prior to starting the experiment.
(§2) Compounds of this invention, dissolved in dimethyl sulfoxide (3.3, 0.33 and 0.03 μg/mL), were then added to the 96 well plates containing the cells and the plates are incubated for 0.5 h at 37° C. Then 50 ng/mL of phorbol 12-myristate-13-acetate (PMA) and 1 μg/mL of phytohemagglutinin (PHA) was added to each well and the cells were incubated for an additional 5 h at 37° C. The plates were centrifuged at 2200 RPM for 3 minutes at room temperature and then the medium was removed. To each well was added 60 μL of cell lysis buffer and the plates were left at room temperature for 0.25 h. Then 40 μL of each cell extract was transferred to a black 96 well plate and 50 μL of luciferase substrate buffer was added. Luminescence was immediately measured using a Packard TopCount.

The test system of assay [2] is AP-1. As to the kind of experiment: AP-1 assay: -73 collagenase promoter luciferase reporter in stable Jurkat T-cells, PMA/PHA stimulated. In kind it is cell-based. Particulars: Homo sapiens, PMA 5 ng/mL + PHA 1 μg/mL, 5 h. The procedure:
as §1, §2
(§3) For AP-1, the assay was run as described above for NFκB except stable Jurkat T-cells were used that contained a the -73 collagenase promoter driving luciferase expression. In addition, the concentration of PMA used was 5 ng/mL.
The results of the above assays (expressed as IC50 's, μM) for representative compounds of this invention, as percent inhibition versus control, are presented in Table 3. β-actin was employed as a control […] indicating effects on transcription. The lack of β-actin activity evidences selectivity of the test compounds for the transcription factors AP-1 and NFκB.

Assay [3] relates to IL-2. As to the kind of experiment: Inhibition of PMA/PHA-induced IL-2 production (ELISA, supernatants of AP-1 reporter assay). Particulars: Homo sapiens. Type of assay: cell-based. As for the experimental part:
as §1, §2, §3
(§4) Cytokine levels in the supernatants (25-50 μL aliquots) were determined by ELISA.

In assay [4] the test system is IL-8. Put plainly: Inhibition of PMA/PHA-induced IL-8 production (ELISA, supernatants of NFκB reporter assay). In kind it is cell-based. Particulars: Homo sapiens. As for the experimental part:
as §1, §2, §4

Assay [5] deals with mice. Particulars: Morris et al., Transplantation Proceedings 1990; cited from earlier work.
Assay [6] relates to mice. Particulars: Morris et al., Transplantation Proceedings 1990; cited from earlier work. This is another data set of the same source.

On to `COc1ccc2c(NN3C(=O)C=C(C)C3=O)nc(-c3cccs3)nc2c1` [Compound 15, 4-(N-AMINOCITRACONAMIDO)-7-METHOXY-2-(2'-THIENYL)QUINAZOLINE], for which the IC50 in assay [1] was found to be 10 nM; in assay [2], 20 nM.

On to `CC1=CC(=O)N(Nc2nc(C(F)(F)F)nc3ccccc23)C1=O` [Compound 3, 4-(N-AMINOCITRACONAMIDO)-2-TRIFLUOROMETHYLQUINAZOLINE], for which the 50% inhibitory concentration (IC50) in assay [3] was 50 nM; in assay [1], 10 nM; in assay [4], 30 nM; in assay [2] it was 100 nM.

Consider `COc1cccc2nc(-c3cccs3)nc(NN3C(=O)C=C(C)C3=O)c12` [Compound 13, 4-(N-AMINOCITRACONAMIDO)-5-METHOXY-2-(2'-THIENYL)QUINAZOLINE], for which the IC50 in assay [1] and in assay [2] was 8 nM throughout.

Regarding `COc1cccc2nc(C(F)(F)F)nc(NN3C(=O)C=C(C)C3=O)c12` [Compound 4, 4-(N-AMINOCITRACONAMIDO)-5-METHOXY-2-TRIFLUOROMETHYLQUNINAZOLINE], the IC50 worked out at 120 nM in assay [3], 10 nM in assay [1], 50 nM in assay [4] and 10 nM in assay [2].

`CC1=CC(=O)N(N(C)c2nc(-c3cccs3)nc3ccccc23)C1=O` [Compound 12, 4-(N-METHYL-N-AMINOCITRACONAMIDO)-2-(2'-THIENYL)QUNINAZOLINE]: the IC50 came out at 2200 nM in assay [1] and 1700 nM in assay [2].

`CC1=CC(=O)N(Nc2nc(-c3ccccc3)nc3ccccc23)C1=O` [Compound 1, 4-(N-AMINOCITRACONAMIDO)-2-PHENYLQUINAZOLINE]: the half-maximal inhibitory concentration (IC50) in assay [3] came out at 10 nM; in assay [1] it was 100 nM; in assay [4], 2 nM; in assay [2] it was 200 nM.

`CC1=CC(=O)N(Nc2nc(C(F)(F)F)nc3cccc(C)c23)C1=O` [Compound 5, 4-(N-AMINOCITRACONAMIDO)-5-METHYL-2-TRIFLUOROMETHYLQUINAZOLINE]: the IC50 worked out at 20 nM in assay [3], 200 nM in assay [1], 2 nM in assay [4] and 500 nM in assay [2].

As for `COc1cc2nc(-c3cccs3)nc(NN3C(=O)C=C(C)C3=O)c2cc1OC` [Compound 17, 4-(N-AMINOCITRACONAMIDO)-6,7-DIMETHOXY-2-(2'-THIENYL)QUINAZOLINE], the 50% inhibitory concentration (IC50) in assay [1] is 40 nM; in assay [2], 70 nM.

Take `CC1=CC(=O)N(Nc2nc(-c3cccs3)nc3cccc(Cl)c23)C1=O` [Compound 21, 4-(N-AMINOCITRACONAMIDO)-5-CHLORO-2-(2'-THIENYL)QUINAZOLINE]: the 50% inhibitory concentration (IC50) in assay [1] was 20 nM; in assay [2] it was 30 nM.

In the case of `CC1=CC(=O)N(Nc2nc(C(F)(F)F)nc3cc(N4CCCCC4)ccc23)C1=O` [Compound 7, 4-(N-AMINOCITRACONAMIDO)-7-(N-PIPERIDYL)-2-TRIFLUOROMETHYLQUNINAZOLINE], the concentration for half-maximal inhibition (IC50) in assay [3] was 70 nM; in assay [1], 100 nM; in assay [4], 5 nM.

Turning to `CC1=CC(=O)N(Nc2nc(C(F)(F)F)nc3cc(Cl)ccc23)C1=O` [Compound 6, 4-(N-AMINOCITRACONAMIDO)-7-CHLORO-2-TRIFLUOROMETHYLQUINAZOLINE], the IC50 stood at 500 nM in assay [3], 100 nM in assay [1], 50 nM in assay [4] and 300 nM in assay [2].

On to `CC1=CC(=O)N(Nc2nc(-c3cccs3)nc3cnccc23)C1=O` [Compound 2, 4-(N-AMINOCITRACONAMIDO)-2-(2'-THIENYL)PYRIDOPYRIMIDINE], for which the 50% inhibitory concentration (IC50) in assay [3] stood at 700 nM; in assay [1] it was 100 nM; in assay [4], 100 nM; in assay [2], 100 nM.

`CC1=CC(=O)N(Nc2nc(-c3cccs3)nc3cccc(C)c23)C1=O` [Compound 22, 4-(N-AMINOCITRACONAMIDO)-5-METHYL-2-(2'-THIENYL)QUNINAZOLINE]: the 50% inhibitory concentration (IC50) in assay [1] was determined as 10 nM; in assay [2], 30 nM.

Take `COc1cccc2nc(-c3cccs3)nc(N(C)N3C(=O)C=C(C)C3=O)c12` [Compound 19, 4-(N-METHYL-N-AMINOCITRACONAMIDO)-5-METHOXY-2-(2'-THIENYL)QUNINAZOLINE]: the IC50 in assay [1] was 100 nM; in assay [2], 70 nM.

As for `COc1cccc2c(NN3C(=O)C=C(C)C3=O)nc(-c3cccs3)nc12` [Compound 16, 4-(N-AMINOCITRACONAMIDO)-8-METHOXY-2-(2'-THIENYL)QUNINAZOLINE], the half-inhibitory concentration (IC50) in assay [1] and in assay [2] was 20 nM throughout.

Turning to `CC1=CC(=O)N(Nc2nc(-c3cccs3)nc3ccccc23)C1=O` [Compound 11, 4-(N-AMINOCITRACONAMIDO)-2-(2'-THIENYL)QUNINAZOLINE], the IC50 in assay [1] turned out to be 40 nM; in assay [2], 70 nM.

As for `COc1ccc2nc(-c3cccs3)nc(NN3C(=O)C=C(C)C3=O)c2c1` [Compound 14, 4-(N-AMINOCITRACONAMIDO)-6-METHOXY-2-(2'-THIENYL)QUNINAZOLINE], the half-inhibitory concentration (IC50) was found to be 2 nM in assay [1] and 3 nM in assay [2].

As to `COc1cc2c(NN3C(=O)C=C(C)C3=O)nc(-c3cccs3)nc2c(OC)c1OC` [Compound 18, 4-(N-AMINOCITRACONAMIDO)-6,7,8-TRIMETHOXY-2-(2'-THIENYL)QUNINAZOLINE], the half-inhibitory concentration (IC50) in assay [1] came to 10 nM; in assay [2], 20 nM.

Turning to `CSc1ccc2nc(C(F)(F)F)nc(NN3C(=O)C=C(C)C3=O)c2c1` [Compound 8, 4-(N-AMINOCITRACONAMIDO)-6-METHYLTHIO-2-TRIFLUOROMETHYLQUNINAZOLINE], the half-inhibitory concentration (IC50) in assay [3] worked out at 40 nM; in assay [1], 60 nM; in assay [4], 50 nM; in assay [2] it was 90 nM.

In the case of `O=P1(N(CCCl)CCCl)NCCCO1` (stereo not shown) [cyclophosphamide], the “activity in the popliteal lymph node (PLN) model” value in assay [5] is “active”. Also, in assay [6], the “activity in the delayed-type hypersensitivity (oxazolone) model” value is “active”.

Take `CC1=CC(=O)N(Nc2nc(-c3cccs3)nc3cccc(F)c23)C1=O` [Compound 20, 4-(N-AMINOCITRACONAMIDO)-5-FLUORO-2-(2'-THIENYL)QUINAZOLINE]: the IC50 is 200 nM in assay [1] and 70 nM in assay [2].

As to `CC1=CC(=O)N(Nc2nc(-c3cccs3)nc3cc(N(C)C)ccc23)C1=O` [Compound 23, 4-(N-AMINOCITRACONAMIDO)-7-DIMETHYLAMINO-2-(2'-THIENYL)QUINAZOLINE], the IC50 in assay [1] and in assay [2] was 40 nM in each case.

With `CC1=CC(=O)N(Nc2nc(C(F)(F)F)nc3ccc(S(C)(=O)=O)cc23)C1=O` [Compound 10, 4-(N-AMINOCITRACONAMIDO)-6-METHYLSULFONYL-2-TRIFLUOROMETHYLQUNINAZOLINE], the results for the IC50 in assay [1] and in assay [2] were 8000 nM and 10000 nM, respectively.
